The structures appear in SMILES notation.

The test has as its system HCT-116 Firefly-luciferase reporter cells. The experiment in a line: Cellular c-MYC Reporter Assay. In kind it is cell-based. Particulars: Homo sapiens; untitled table following Table 8a; HCT-116 Firefly-luciferase reporter cells, 24 h; read-out: pIC50 (converted). In short, it runs like this:
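Reporter cells seeded at 5e4 cells/mL in McCoy's 5A with 10% FBS and G418, dosed after 4–6 h at 0.2% final DMSO. After 24 h at 37 °C, luciferase luminescence was read with ONE-Glo.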
In general terms: In a reporter assay the amount or activity of a reporter protein is the signal.
On to `Cc1cccc2ccnc(N(C(=O)N3CCC(n4ncc5ccccc54)CC3)[C@@H]3CCCNC3)c12` [Example 266, (R)-4-(1H-indazol-1-yl)-N-(8-methylisoquinolin-1-yl)-N-(piperidin-3-yl)piperidine-1-carboxamide], for which the IC50 is 2.95 µM. With `Cc1cccc2ccnc(N(C(=O)N3CCCC(C)(c4ccccc4)C3)[C@@H]3CCCNC3)c12` (stereo partly drawn) [Example 267, 3-methyl-N-(8-methylisoquinolin-1-yl)-3-phenyl-N—((R)-piperidin-3-yl)piperidine-1-carboxamide], the IC50 is 5.37 µM. Regarding `Cc1cccc2ccnc(N(C(=O)N3CCC(n4c(=O)ccc5ccccc54)CC3)[C@@H]3CCCNC3)c12` [Example 268, (R)—N-(8-methylisoquinolin-1-yl)-4-(2-oxoquinolin-1(2H)-yl)-N-(piperidin-3-yl)piperidine-1-carboxamide], the IC50 is 5.89 µM. For the compound `Cc1cccc2ccnc(N(C(=O)N3CCC(c4cccc(O)c4)CC3)[C@@H]3CCCNC3)c12` [Example 269, (R)-4-(3-hydroxyphenyl)-N-(8-methylisoquinolin-1-yl)-N-(piperidin-3-yl)piperidine-1-carboxamide], the IC50 was 3.55 µM.

Turning to `Cc1cccc2ccnc(N(C(=O)N3CCN(c4nncc5ccccc45)CC3)[C@@H]3CCCNC3)c12` [Example 270], the IC50 is 2 µM. In the case of `Cc1cccc2ccnc(N(C(=O)c3cccc(Cn4ccnn4)c3F)[C@@H]3CCCNC3)c12` [Example 271, (R)-3-((1H-1,2,3-triazol-1-yl)methyl)-2-fluoro-N-(8-methylisoquinolin-1-yl)-N-(piperidin-3-yl)benzamide], the IC50 is 4.79 µM.

With `O=C(c1ccc(Nc2ncccn2)cc1F)N(c1nccc2cccc(Cl)c12)[C@@H]1CCCNC1` [Example 272, (R)—N-(8-chloroisoquinolin-1-yl)-2-fluoro-N-(piperidin-3-yl)-4-(pyrimidin-2-ylamino)benzamide], the IC50 was 0.437 µM.

For `Cc1cccc2ccnc(N(C(=O)c3cccc(Cn4nc5cccnc5n4)c3F)[C@@H]3CCCNC3)c12` [Example 273, (R)-3-((2H-[1,2,3]triazolo[4,5-b]pyridin-2-yl)methyl)-2-fluoro-N-(8-methylisoquinolin-1-yl)-N-(piperidin-3-yl)benzamide], the IC50 is 1.7 µM. On to `Cc1cccc2ccnc(N(C(=O)c3ccc(Nc4ncccc4N)cc3F)[C@@H]3CCCNC3)c12` [Example 274, (R)-4-((3-aminopyridin-2-yl)amino)-2-fluoro-N-(8-methylisoquinolin-1-yl)-N-(piperidin-3-yl)benzamide], for which the IC50 was 3.8 µM.

With `Cc1cccc2ccnc(N(C(=O)c3ccc(Nc4nccs4)cc3F)[C@@H]3CCCNC3)c12` [Example 275, (R)-2-fluoro-N-(8-methylisoquinolin-1-yl)-N-(piperidin-3-yl)-4-(thiazol-2-ylamino)benzamide], the IC50 is 3.89 µM. The result for `Cc1cccc2ccnc(N(C(=O)c3ccc(Nc4nccc5cccnc45)cc3F)[C@@H]3CCCNC3)c12` [Example 276, (R)-4-((1,7-naphthyridin-8-yl)amino)-2-fluoro-N-(8-methylisoquinolin-1-yl)-N-(piperidin-3-yl)benzamide] reads 7.08 µM; that for `Cc1cccc2ccnc(N(C(=O)c3ccc(Nc4ccn(C)n4)cc3F)[C@@H]3CCCNC3)c12` [Example 277, (R)-2-fluoro-4-((1-methyl-1H-pyrazol-3-yl)amino)-N-(8-methylisoquinolin-1-yl)-N-(piperidin-3-yl)benzamide], 4.9 µM; that for `Cc1cc(C)c2c(N(C(=O)N3CCC(c4cc(C)no4)CC3)[C@@H]3CCCNC3)nccc2c1` [Example 278, (R)—N-(6,8-dimethylisoquinolin-1-yl)-4-(3-methylisoxazol-5-yl)-N-(piperidin-3-yl)piperidine-1-carboxamide], 0.49 µM. For `CCOC(=O)c1cc(C2CCN(C(=O)N(c3nccc4cccc(C)c34)[C@@H]3CCCNC3)CC2)on1` [Example 279, ethyl (R)-5-(1-((8-methylisoquinolin-1-yl)(piperidin-3-yl)carbamoyl)piperidin-4-yl)isoxazole-3-carboxylate], the IC50 was 5.13 µM.

Source of the values: US20240400555A1 (Initial Therapeutics, Inc., priority 2023, published 2024).
